Format in all cases: functional, cell-based
One test concerns A2780. Kind of test: Cytotoxicity against human A2780 cells assessed as reduction in cell viability measured after 48 hrs by MTT assay. Particulars: A2780, 48 h. For orientation: Formazan colour is commonly taken as a measure of viable cells.
Another test has as its system PC-3. Kind of test: Cytotoxicity against human PC-3 cells assessed as reduction in cell viability measured after 48 hrs by MTT assay. The following applies: PC-3, 48 h.
A further test has as its system MCF7. Kind of test: Cytotoxicity against human MCF7 cells assessed as reduction in cell viability measured after 48 hrs by MTT assay. The following applies: MCF7, 48 h.

pIC50: −log10 of the molar value.

A word on the pIC50: it is −log10 of the IC50, conventionally taken in molar units. On to `Oc1ccc(Cl)cc1/C=N/CCc1ccccn1`, for which the results for the pIC50 in the test on A2780, in the test with PC-3 and in the test on MCF7 were 4.29, 3.96 and 4.35, respectively.
Take `Oc1ccc(Br)cc1/C=N/CCc1ccccn1`: the pIC50 with A2780 was 4.30; with PC-3, 3.97; with MCF7, 4.38.
The like results for `Oc1c(Br)cc(Cl)cc1/C=N/CCc1ccccn1` were, in that order, 4.32, 4.08 and 4.32.
For `Oc1ccccc1/C=N/CCc1ccccn1`, in that order: less than 4.00, less than 4.00 and less than 4.00.

The record behind these values is ChEMBL document CHEMBL4825727, “Cytotoxic oxidovanadium(IV) complexes of tridentate halogen-substituted Schiff bases: First dinuclear V(IV) complexes with O → VIV = O → VIV = O core” (Bioorg Med Chem Lett, 2021).
